Laboratory results from patent publication US8912120B2, “Herbicidal compositions comprising 4-amino-3-chloro-5-fluoro-6-(4-chloro-2-fluoro-3-methoxyphenyl) pyridine-2-carboxylic acid or a derivative thereof and synthetic auxin herbicides” (Dow AgroSciences, LLC., priority 2012, dated 2014).
Where a name gives a salt, the structure may show the parent alone. Read-outs that look alike come from different tables or passages of the source.

Assays:
[1] = system: ELEIN; test: Example III: postemergence foliar-applied herbicidal mixtures, weeds common to row crops such as corn and soybeans (greenhouse), ELEIN; format: in vivo, Eleusine indica (goosegrass); settings: 17 DAA
Procedure: (§1) The plants were grown for 7-31 days (d) in a greenhouse with an approximate 15 hour (h) photoperiod which was maintained at about 23-29° C. during the day and 22-28° C. during the night.

[2] = system: SORHA; test: Example III: postemergence foliar-applied herbicidal mixtures, row crop weeds, SORHA; format: in vivo, Sorghum halepense (johnsongrass); settings: 13 DAA; 7.5 gae/ha
Procedure: as §1

[3] = system: CYPDI; test: Example I: postemergence foliar-applied herbicidal mixtures, direct seeded rice, CYPDI; format: in vivo, Cyperus difformis (smallflower umbrella sedge)
Procedure: (§6) The soil matrix was contained in plastic pots with a volume of 1 quart and a surface area of 83.6 square centimeters (cm^2). […] The plants were grown for 8-22 days in a greenhouse with an approximate 14 h photoperiod which was maintained at about 29° C. during the day and 26° C. during the night. Nutrients (Peters Excel® 15-5-15 5-Ca 2-Mg and iron chelate) were applied in the irrigation solution as needed and water was added on a regular basis. Supplemental lighting was provided with overhead metal halide 1000-Watt lamps as necessary. The plants were employed for testing when they reached the first through fourth true leaf stage.
(§7) Treatments consisted of the acid or esters of 4-amino-3-chloro-5-fluoro-6-(4-chloro-2-fluoro-3-methoxy-phenyl)pyridine-2-carboxylic acid (Compound A), each formulated as an SC (suspension concentrate), and various herbicidal components alone and in combination. Forms of compound A were applied on an acid equivalent basis.
(§8) For treatments comprised of formulated compounds, measured amounts of compounds were placed individually in 25 mL glass vials and diluted in a volume of 1.25% (v/v) Agri-Dex® crop oil concentrated to obtain 12× stock solutions. […] Application solutions were prepared by adding an appropriate amount of each stock solution (e.g., 1 mL) and diluted to the appropriate final concentrations with the addition of 10 mL of an aqueous mixture of 1.25% (v/v) crop oil concentrate so that the final spray solutions contained 1.25+/−0.05% (v/v) crop oil concentrate.
(§9) All stock solutions and applications solutions were visually inspected for compound compatibility prior to application. Spray solutions were applied to the plant material with an overhead Mandel track sprayer equipped with a 8002E nozzles calibrated to deliver 187 L/ha over an application area of 0.503 m^2 at a spray height of 18 to 20 inches (46 to 50 cm) above average plant canopy height. Control plants were sprayed in the same manner with the solvent blank.
(§10) The treated plants and control plants were placed in a greenhouse as described above and watered by sub-irrigation to prevent wash-off of the test compounds. After approximately 3 weeks, the condition of the test plants as compared with that of the untreated plants was determined visually and scored on a scale of 0 to 100 percent where 0 corresponds to no injury or growth inhibition and 100 corresponds to complete kill.
(§11) Colby's equation was used to determine the herbicidal effects expected from the mixtures (Colby, S. R. 1967. Calculation of the synergistic and antagonistic response of herbicide combinations. Weeds 15:20-22).
The following equation was used to calculate the expected activity of mixtures containing two active ingredients, A and B: Expected=A+B−(A×B/100) […]

[4] = system: SCPMA; test: Example II: in-water applied herbicidal mixtures, transplanted paddy rice, SCPMA; format: in vivo; settings: 22 DAA; 149 gae/ha
Procedure: (§2) The prepared mud was dispensed in 365 mL aliquots into 16-ounce (oz.) non-perforated plastic pots with a surface area of 86.59 square centimeters (cm^2) leaving a headspace of 3 centimeters (cm) in each pot Mud was allowed to dry overnight prior to planting or transplanting. Rice seeds were planted in Sun Gro MetroMix® 306 planting mixture, which typically has a pH of 6.0 to 6.8 and an organic matter content of about 30 percent, in plastic plug trays. Seedlings at the second or third leaf stage of growth were transplanted into 840 mL of mud contained in 32-oz. non-perforated plastic pots with a surface area of 86.59 cm^2 4 days prior to herbicide application. […] Nutrients were added as Osmocote® (19:6:12, N:P:K^+ minor nutrients) at 2 g per 16-oz. pot and 4 g per 32-oz. pot.
(§3) Applications were made by injecting with a pipetter appropriate amounts of the application solutions, individually and sequentially, into the aqueous layer of the paddy. Control plants were treated in the same manner with the solvent blank. Applications were made so that all treated plant material received the same concentrations of acetone and crop oil concentrate.

[5] = system: ECHCG; test: Example II: in-water applied herbicidal mixtures, transplanted paddy rice, ECHCG; format: in vivo, Echinochloa crus-galli (barnyardgrass)
Procedure: as §2, §3

[6] = system: LEFCH; test: Example II: in-water applied herbicidal mixtures, transplanted paddy rice, LEFCH; format: in vivo, Leptochloa chinensis (Chinese sprangletop); settings: 25 DAA; 70 gae/ha
Procedure: as §2, §3

[7] = system: ECHOR; test: Example II: in-water applied herbicidal mixtures, transplanted paddy rice, ECHOR; format: in vivo, Echinochloa oryzoides (early watergrass); settings: Echinochloa oryzoides; for pest or weed control at 70 g/ha: 70 gae/ha; for pest or weed control at 140 g/ha: 140 gae/ha
Procedure: as §2, §3

[8] = system: ECHCG; test: Example I: postemergence foliar-applied herbicidal mixtures, direct seeded rice, ECHCG
Procedure: as §6, §7, §8, §9, §10, §11
(§12) The following equation was used to calculate the expected activity of mixtures containing two active ingredients, A and B: Expected=A+B−(A×B/100)
(§13) A=observed efficacy of active ingredient A at the same concentration as used in the mixture.
(§14) B=observed efficacy of active ingredient B at the same concentration as used in the mixture.

[9] = system: SCPJU; test: Example II: in-water applied herbicidal mixtures, transplanted paddy rice, SCPJU; format: in vivo, Schoenoplectus juncoides (Japanese bulrush); settings: 25 DAA
Procedure: as §2, §3

[10] = system: ECHCO; test: Example I: postemergence foliar-applied herbicidal mixtures, direct seeded rice, ECHCO
[11] = system: LEFCH; test: Example I: postemergence foliar-applied herbicidal mixtures, direct seeded rice, LEFCH; format: in vivo, Leptochloa chinensis (Chinese sprangletop); settings: 280 gae/ha
Procedure: as §6, §7, §8, §9, §10, §11, §12, §13, §14

[12] = system: SOOSS; test: Example V: postemergence herbicidal activity of mixtures in forage crops, SOOSS; format: in vivo, Solidago L. spec. (goldenrod); settings: alone, foliar, approximately 21 days
Procedure: (§4) Seeds or root cuttings of the desired test plant species were planted in Sun Gro MetroMix® 306 planting mixture, which typically has a pH of 6.0 to 6.8 and an organic matter content of about 30 percent, in plastic pots with a surface area of 126.6 square centimeters (cm^2). […] The plants were grown for 14-60 days in a greenhouse with an approximate 14 hour photoperiod which was maintained at approximately 28° C. during the day and 24° C. during the night.
(§5) Spray solutions of the second herbicide or experimental compound mixtures were prepared by adding the stock solutions to the appropriate amount of dilution solution to form 12 mL spray solution with active ingredients in two-way combinations.

[13] = system: CIRAR; test: Example V: postemergence herbicidal activity of mixtures in forage crops, CIRAR; format: in vivo, Cirsium arvense (Canada thistle); settings: alone, foliar, approximately 21 days
Procedure: as §4, §5

[14] = system: TRFRE; test: Example V: postemergence herbicidal activity of mixtures in forage crops, TRFRE; format: in vivo, Trifolium repens (white clover); settings: alone, 17.5 gae/ha, foliar, approximately 21 days
Procedure: as §4, §5

[15] = system: SINAR; test: Example V: postemergence herbicidal activity of mixtures in forage crops, SINAR; format: in vivo, Sinapis arvensis (wild mustard); settings: alone, foliar, approximately 21 days
Procedure: as §4, §5

[16] = 456 h, read-out: Visual Weed Control (%) Obs, 19 DAA
[17] = 600 h, read-out: Visual Weed Control (%) Obs, 25 DAA
[18] = 70 gae/ha (Compound A Benzyl Ester rate not given)
[19] = 140 gae/ha (Compound A Benzyl Ester rate not given)

`COc1c(Cl)ccc(-c2cc(N)c(Cl)c(C(=O)[O-])n2)c1F.[K+]` [Halauxifen K^+ Salt] was tested, and the “Visual Weed Control (%) Obs” value ([1]; 3.75 gae/ha) was 30%, the “Visual Weed Control (%) Obs” value ([1]; 7.5 gae/ha) was 40% and the “Visual Weed Control (%) Obs” value ([1]; 15 gae/ha) was 50%. For the same molecule, the “Visual Weed Control (%) Obs” value [2] was 0%.

With `CCCCCCC(C)OC(=O)COc1nc(F)c(Cl)c(N)c1Cl` (stereo not drawn) [Fluroxypyr MHE, 1-methylheptyl 2-[(4-amino-3,5-dichloro-6-fluoro-2-pyridinyl)oxy]acetate, reference compound] the “Visual Weed Control (%) - 21 DAA CYPDI Obs” value ([3]; 70 gae/ha) was 15%, the “Visual Weed Control (%) - 21 DAA CYPDI Obs” value ([3]; 140 gae/ha) was 80% and the “Visual Weed Control (%) Obs” value [4] was 30%. The “Visual Weed Control (%) Obs” value ([5]; 19 DAA, 70 gae/ha) was 0%, the “Visual Weed Control (%) Obs” value ([5]; 19 DAA, 140 gae/ha) was 0% and the “Visual Weed Control (%) Obs” value ([5]; 19 DAA, 280 gae/ha) was 0%. The “Visual Weed Control (%) Obs” value ([5]; 25 DAA, 140 gae/ha) was 0%, the “Visual Injury (%) Obs” value [6] was 20% and the “Visual Weed Control (%) Obs” value [6] was 20%. The pest or weed control at 70 g/ha [7, 16] was 0%, the pest or weed control at 140 g/ha [7, 16] was 0% and the pest or weed control at 70 g/ha [7, 17] was 0%. The pest or weed control at 140 g/ha [7, 17] was 0%, the “Visual Weed Control (%) - 21 DAA ECHCG Obs” value ([8]; 70 gae/ha) was 0% and the “Visual Weed Control (%) - 21 DAA ECHCG Obs” value [8, 18] was 0%. For the same molecule, the “Visual Weed Control (%) - 21 DAA ECHCG Obs” value ([8]; 140 gae/ha) was 0%, the “Visual Weed Control (%) - 21 DAA ECHCG Obs” value [8, 19] was 0% and the “Visual Weed Control (%) - 19 DAA ECHCG Obs” value ([8]; 280 gae/ha) was 25%. The “Visual Weed Control (%) Obs” value ([9]; 70 gae/ha) was 20%, the “Visual Weed Control (%) Obs” value ([9]; 140 gae/ha) was 30% and the “Visual Weed Control (%) - 21 DAA ECHCO Obs” value ([10]; 70 gae/ha) was 0%. The “Visual Weed Control (%) - 21 DAA ECHCO Obs” value [10, 18] was 0%, the “Visual Weed Control (%) - 21 DAA ECHCO Obs” value ([10]; 140 gae/ha) was 0% and the “Visual Weed Control (%) - 21 DAA ECHCO Obs” value [10, 19] was 0%. For the same molecule, the “Visual Weed Control (%) - 19 DAA LEFCH Obs” value [11] was 28%.

`Nc1cc(Cl)nc(C(=O)O)c1Cl` [Aminopyralid TIPA salt, 4-amino-3,6-dichloropyridine-2-carboxylic acid compound with 1,1′,1″-nitrilotris[2-propanol], reference compound] was tested, and the “SOOSS Obs (observed value)” value ([12]; 17.5 gae/ha) was 45%, the “CIRAR Obs (observed value)” value ([13]; 17.5 gae/ha) was 45% and the “TRFRE Obs (observed value)” value [14] was 35%. For the same molecule, the “SINAR Obs (observed value)” value ([15]; 17.5 gae/ha) was 25% and the “SINAR Obs (observed value)” value ([15]; 35 gae/ha) was 45%.

`O=C(O)c1nc(Cl)ccc1Cl` [Clopyralid MEA salt, 3,6-dichloro-2-pyridinecarboxylic acid with 2-aminoethanol, reference compound] was tested, and the “SOOSS Obs (observed value)” value ([12]; 35 gae/ha) was 25% and the “CIRAR Obs (observed value)” value ([13]; 35 gae/ha) was 75%.
